{
  "source": "patent US11311620B2",
  "about": "“Neoadjuvant therapy for bladder cancer” (PHOTOCURE ASA, priority 2016, dated 2022)",
  "origin": "cited, not measured here",
  "key": {"NMIBC": {"test_system": "NMIBC", "conditions": "patients with NMIBC"}, "MIBC": {"test_system": "MIBC", "conditions": "patients who had cystectomy; HAL-guided TUR prior to cystectomy; 268 consecutive patients, retrospective"}, "bladder cancer": {"test_system": "bladder cancer", "conditions": "neoadjuvant cisplatin-containing chemotherapy"}},
  "data": [
    {"compound": "CCCCCCOC(=O)CCC(=O)CN", "note": "[HAL, n-hexyl 5-amino-4-oxo-pentanoate]", "values": [
      {"measurement": "rate of residual tumor after TUR", "setting": "NMIBC", "result": "reduced the rate of residual tumor"},
      {"measurement": "recurrence free survival (RFS) rates compared to white light TUR alone", "setting": "NMIBC", "result": "superior recurrence free survival (RFS) rates"},
      {"measurement": "detection of papillary tumors and flat carcinoma-in-situ (CIS) lesions", "setting": "NMIBC; compared to white light alone", "result": "improved detection"},
      {"measurement": "3-year overall survival (OS)", "setting": "MIBC", "result": 65.0, "unit": "%"},
      {"measurement": "3-year recurrence-free survival (RFS)", "setting": "MIBC", "result": 69.8, "unit": "%"}
    ]},
    {"compound": "N.N.[Cl][Pt][Cl]", "note": "[cisplatin]", "values": [
      {"measurement": "absolute improvement in survival at 5 years", "setting": "bladder cancer", "result": 5, "unit": "%"}
    ]}
  ]
}
